{"source": "paper PMC7407491", "about": "“The Addition of a Synthetic LPS-Targeting Domain Improves Serum Stability While Maintaining Antimicrobial, Antibiofilm, and Cell Stimulating Properties of an Antimicrobial Peptide” (Biomolecules, 2020)", "key": {"MRSA biofilm": {"system": "MRSA biofilm", "experiment": "Biofilm inhibition assay, crystal violet", "format": "cell-based, Methicillin-resistant Staphylococcus aureus", "description": "Plates were placed in a static incubator at 37 °C for 48 h; the time required for untreated wells to form biofilm. After incubation, treated media was removed and wells were rinsed with 155 µL of PBS to remove planktonic cells. After sufficient air drying of wells, 150 µL of 0.1% Crystal violet stain was added to each well and incubated at room temperature for 30 min, after which, dye was removed and wells were rinsed again with 155 µL of PBS. After sufficient drying of wells, 150 µL of 70% ethanol solution was added to each well and incubated at room temperature for 30 min. After 30 min, 100 µL of each well was added to a new 96-well plate and absorbance was measured at an OD of 590 nm."}, "MRSA": {"system": "MRSA", "format": "cell-based, Methicillin-resistant Staphylococcus aureus", "details": "2 h, pH 7", "description": "(§1) Veterinary clinical isolates, including Salmonella typhimurium, multi-drug resistant Escherichia coli, methicillin-resistant Staphylococcus aureus (MRSA), and methicillin-resistant Staphylococcus pseudointermedius (MRSP), were kindly provided by Dr. H. Cai (Department of Pathobiology, University of Guelph, ON, Canada). An antibiogram for these strains is available in the supplementary text (Table S1). Gram-negative strains were cultured in Luria−Bertani (LB) broth. Gram-positive strains were cultured in Tryptic soy broth (TSB). Both cultures were grown under aerobic conditions at 37 °C.\n(§2) The minimum bactericidal concentration (MBC) of SynPG-1 against the tested pathogens was identified through a broth macrodilution antimicrobial assay as previously described, with some modification. […] The buffer volume was adjusted to accommodate the addition of SynPG-1 and PG-1 so that the final solution volume was 0.5 mL for each tested concentration. Final peptide concentrations ranged from 0.1 µg/mL to 8 µg/mL. PG-1 at the known MBC (2 µg/mL E. coli; 4 µg/mL S. typhimurium; 0.5 µg/mL MRSP; 0.5 µg/mL MRSA) was considered the in-house positive control, while the suspension containing no peptide was considered the negative control. Experimental and control tubes were incubated for 2 h at 37 °C without shaking to allow for bactericidal action to occur. […] Colony numbers from each plate were recorded. […]"}, "IPEC-J2 cells": {"system": "IPEC-J2 cells", "experiment": "In vitro cell migration, transwell assay", "format": "cell-based, porcine", "details": "transwell 8-micron, serum-free DMEM F-12, 5 to 20 µg/mL, 16 h, Hoechst 33342 count; SynPG-1 not significant at higher concentrations", "description": "A cell line, established from intestinal porcine enterocytes, isolated from the jejunum of a neonatal unsuckled piglet (IPEC-J2 cells, DSMZ), was grown in monolayer culture in Dulbecco’s modified Eagle’s medium (high glucose), supplemented with 10% fetal bovine serum (FBS) from Invitrogen, 100 IU/mL penicillin, and 100 µg/mL streptomycin. Cultures were maintained in a 5% CO2 humidified atmosphere at 37 °C and passaged every 2–3 days, with detachment via the Trypsin-EDTA solution (Sigma).\nTo evaluate migration of IPEC-J2 cells, 8-micron pore-sized cell culture transwell inserts were used (Millipore Inc, Temecula, CA, USA). A total of 1 × 10^5 cells were plated in the upper inserts of the transwell and placed within 24-well plates, containing serum-free DMEM F-12 in the absence and presence of SynPG-1 or PG-1, at concentrations ranging from 5 µg/mL to 20 µg/mL. After incubation for 16 h, the cells were fixed with 4% (w/v) paraformaldehyde. […] Migration was quantified by cell enumeration through Hoechst 33342 staining of cell nuclei (Thermo Fisher Scientific, Mississauga, ON, Canada). The results are represented as the relative fold increase in migrated cells when compared to the baseline migration of IPEC-J2 cells in serum-free media after 16 h."}, "[1]": {"details": "25% porcine intestinal fluid (pH 6.5) in PBS, 1 mg/mL peptide, 1 h 37 °C with shaking; residual activity vs E. coli at 20 µg/mL, colony count; three independent experiments", "procedure": "Porcine digestive fluids were collected, as previously described by Wang et al. [44]. […] The gastrointestinal tract was kept at 4 °C during dissection, and collection of contents from the stomach and upper small intestine (duodenum and jejunum) was conducted within 5 h of sacrifice. Contents were centrifuged at 10,000 rpm (9600× g) for 10 min at 4 °C, and supernatant fluid was collected and stored at −80 °C until its use in the stability experiment. The pH of the collected supernatants were 3.5 and 6.5 for gastric fluid and duodenum fluid, respectively.\nProcedures similar to those used by Egger et al. [45] were used for this experiment. […] Suspension containing no peptide was considered the negative control. After incubation, 10 µL of the incubated solutions was added for a total volume of 0.5 mL, consisting of 20 µL of mid-logarithmic phase E. coli cells, diluted to a concentration of about 1 × 10^5 CFU/mL, and 470 µL of 20 mM sodium phosphate buffer (pH 7). […] Stability in porcine digestive fluid was evaluated as the relative colony growth on plates from bacterial grown with digestive fluid and peptide treatments, in comparison to plates grown from bacteria grown with digestive fluid alone.\nStability was evaluated by comparing the mean growth of colonies on plates treated with peptides incubated in digestive fluids to colonies grown when treated without peptide. […]"}, "A. baumanni biofilm": {"system": "A. baumanni biofilm", "details": "tested alone or with an antibiotic; reduction in crystal violet staining only; cited from earlier work", "text": "Although many have studied the antimicrobial potential of PG-1, its anti-biofilm properties have only been tested against a few species, including Streptococcus mutans and Acinetobacter baumanni. Since the composition of the extracellular polymeric substance (EPS) of a biofilm can vary widely from species to species, further investigation into the PG-1′s spectrum of antibiofilm activity is necessary. To do so, we evaluated the effect of PG-1 and SynPG-1 on the disruption and formation of biofilms from three pathogenic MDR bacteria and measured the remaining viable pathogens. ..."}, "MRSP": {"system": "MRSP", "format": "cell-based, Methicillin-resistant Staphylococcus pseudointermedius", "details": "2 h, pH 7", "description": "as §1, §2"}, "[2]": {"system": "pre-formed S. typhimurium biofilm", "experiment": "Pre-formed biofilm destruction assay, crystal violet", "format": "cell-based, Salmonella typhimurium", "details": "64 µg/mL, 3 h treatment, crystal violet", "description": "To test the destruction of preformed biofilms, in a 96-well plate, 15 µL of overnight culture, of either E. coli, S. typhimurium, or MRSA, was added to 150 µL of minimal salt media (40 mM […]; 22 mM KH2PO4; […] NH4CL; 740 mM NaCl; 2 mM MgSO4; 0.1 mM CaCl2; 22 mM supplemented with D-Glucose) in each well. Plates were placed in a static incubator at 37 °C for 48 h; the time required for untreated wells to form biofilm. After formation, minimal salt media was removed and wells were treated with 155 µL of minimal salt media containing PG-1 or SynPG-1. […] Plates were placed in a static incubator at 37 °C for 3 h. After 3 h, treated media was removed and wells were rinsed with 155 µL of PBS to remove planktonic cells. After sufficient drying of wells, 150 µL of 0.1% crystal violet stain was added to each well and incubated at room temperature for 30 min, after which dye was removed and wells were rinsed again with 155 µL of PBS. After sufficient drying of wells, 150 µL of 70% ethanol solution was added to each well and incubated at room temperature for 30 min. After 30 min, 100 µL of each well was added to a new 96-well plate and absorbance was measured at an OD of 590 nm."}}}
{"smiles": "CC(C)C[C@H](NC(=O)[C@H](CCCNC(=N)N)NC(=O)CNC(=O)CNC(=O)[C@@H](N)CCCNC(=N)N)C(=O)N[C@H]1CSSC[C@@H](C(=O)N[C@H](C(=O)NCC(=O)N[C@@H](CCCNC(=N)N)C(N)=O)C(C)C)NC(=O)[C@H](C(C)C)NC(=O)[C@@H]2CSSC[C@H](NC(=O)[C@H](Cc3ccc(O)cc3)NC1=O)C(=O)N[C@@H](CCCNC(=N)N)C(=O)N[C@@H](CCCNC(=N)N)C(=O)N[C@@H](CCCNC(=N)N)C(=O)N[C@@H](Cc1ccccc1)C(=O)N2", "note": "[PG-1, Protegrin-1]", "values": [{"measurement": "Concentration at which inhibition of biofilm formation was seen", "setting": "MRSA biofilm; minimal salt media, 48 h 37 °C static, crystal violet OD 590 nm, p < 0.05 vs control, concentration dependent", "result": 8, "unit": "µg/mL"}, {"measurement": "Effect on biofilm formation at the concentration where SynPG-1 began to reduce it", "setting": "MRSA biofilm; same concentration as SynPG-1 onset (2 µg/mL), crystal violet, 48 h", "result": "significant promotion of biofilm formation"}, {"measurement": "MBC", "setting": "MRSA", "result": "0.5 (0.18) μg/mL"}, {"measurement": "Concentration at which cell migration increased significantly", "setting": "IPEC-J2 cells", "result": 20, "unit": "µg/mL"}, {"measurement": "Antimicrobial activity after incubation in 25% porcine intestinal fluid", "setting": "[1]", "result": "mean % growth of control increased for SynPG-1 but not PG-1"}, {"measurement": "Antibiofilm activity", "setting": "A. baumanni biofilm", "result": "no antibiofilm activity"}, {"measurement": "MBC", "setting": "MRSP", "result": "0.5 (0.18) μg/mL"}, {"measurement": "Effect on pre-formed biofilm at 64 µg/mL", "setting": "[2]", "result": "did not demonstrate a significant reduction"}]}
